Reference: PubChem BioAssay AID1963869 (Molecular Pharmacology Branch, DTP, NCI, 2024)

System: KRAS patient-derived spheroids with HUVEC/MSC, viability
Test: Anticancer human tumor 323965-272-R-J2-PDC patient-derived pancreatic carcinoma cell line growth inhibition [KRAS2]
Conditions: for IC50: curve of first compound; for viability, T/C: stronger effect = lower value
Outline: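 KRAS-mutant tumor cells were grown as spheroids with HUVEC endothelial cells and human MSCs as stroma. Targeted agents were tested alone and with KRAS pathway inhibitors. Doses started at or near clinical Cmax, or 10 microM, descending half-log.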

[1] = second compound 0.1 µM, first compound 0.0316 µM
[2] = second compound 0.1 µM, first compound 0.1 µM
[3] = second compound 0.1 µM, first compound 0.316 µM
[4] = second compound 0.1 µM, first compound 1 µM
[5] = second compound 0.1 µM, first compound 3.16 µM
[6] = second compound 0.1 µM, first compound 10 µM
[7] = second compound 0.316 µM, first compound 0.0316 µM
[8] = second compound 0.316 µM, first compound 0.1 µM
[9] = second compound 0.316 µM, first compound 0.316 µM
[10] = second compound 0.316 µM, first compound 1 µM
[11] = second compound 0.316 µM, first compound 3.16 µM
[12] = second compound 0.316 µM, first compound 10 µM
[13] = second compound 1 µM, first compound 0.0316 µM
[14] = second compound 1 µM, first compound 0.1 µM
[15] = second compound 1 µM, first compound 0.316 µM
[16] = second compound 1 µM, first compound 1 µM
[17] = second compound 1 µM, first compound 3.16 µM
[18] = second compound 1 µM, first compound 10 µM
[19] = second compound 3.16 µM, first compound 0.0316 µM
[20] = second compound 3.16 µM, first compound 0.1 µM
[21] = second compound 3.16 µM, first compound 0.316 µM
[22] = second compound 3.16 µM, first compound 1 µM
[23] = second compound 3.16 µM, first compound 3.16 µM
[24] = second compound 3.16 µM, first compound 10 µM
[25] = second compound 10 µM, first compound 0.0316 µM
[26] = second compound 10 µM, first compound 0.1 µM
[27] = second compound 10 µM, first compound 0.316 µM
[28] = second compound 10 µM, first compound 1 µM
[29] = second compound 10 µM, first compound 3.16 µM
[30] = second compound 10 µM, first compound 10 µM
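Further: spheroids exposed to agents for 7 days.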
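Wherever viability, T/C is given: 100% = DMSO vehicle control viability.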

COC(=O)c1ccc2c(C(=Nc3ccc(N(C)C(=O)CN4CCN(C)CC4)cc3)c3ccccc3)c(O)[nH]c2c1 + C=CC(=O)N1CCN(c2nc(=O)n(-c3c(C)ccnc3C(C)C)c3nc(-c4c(O)cccc4F)c(F)cc23)C(C)C1
IC50 (second compound 0.1 µM): 1160 nM | IC50 (second compound 0.316 µM): 536 nM | IC50 (second compound 1 µM): 243 nM | IC50 (second compound 3.16 µM): 196 nM | IC50 (second compound 10 µM): < 31.6 nM | viability, T/C [1]: 53.3% | viability, T/C [2]: 55.6% | viability, T/C [3]: 53.7% | viability, T/C [4]: 50.7% | viability, T/C [5]: 42.6% | viability, T/C [6]: 19% | viability, T/C [7]: 56% | viability, T/C [8]: 52.4% | viability, T/C [9]: 52.6% | viability, T/C [10]: 46.8% | viability, T/C [11]: 28.4% | viability, T/C [12]: 16.6% | viability, T/C [13]: 57.9% | viability, T/C [14]: 57.6% | viability, T/C [15]: 48% | viability, T/C [16]: 28.2% | viability, T/C [17]: 21.4% | viability, T/C [18]: 16.8% | viability, T/C [19]: 58% | viability, T/C [20]: 56.6% | viability, T/C [21]: 46.4% | viability, T/C [22]: 27.9% | viability, T/C [23]: 22.1% | viability, T/C [24]: 13.8% | viability, T/C [25]: 43.1% | viability, T/C [26]: 32.9% | viability, T/C [27]: 29.6% | viability, T/C [28]: 18.8% | viability, T/C [29]: 17.8% | viability, T/C [30]: 12.5%

CC(=O)Nc1cccc(-n2c(=O)n(C3CC3)c(=O)c3c(Nc4ccc(I)cc4F)n(C)c(=O)c(C)c32)c1 + CC1OCC2(CCN(c3cnc(Sc4ccnc(N)c4Cl)c(N)n3)CC2)C1N
IC50 (second compound 0.1 µM): 1.78 nM | IC50 (second compound 0.316 µM): 0.438 nM | IC50 (second compound 1 µM): < 0.1 nM | IC50 (second compound 3.16 µM): < 0.1 nM | IC50 (second compound 10 µM): < 0.1 nM | viability, T/C (second compound 0.1 µM, first compound 0.0001 µM): 80.7% | viability, T/C (second compound 0.1 µM, first compound 0.000316 µM): 72.3% | viability, T/C (second compound 0.1 µM, first compound 0.001 µM): 56.4% | viability, T/C (second compound 0.1 µM, first compound 0.00316 µM): 41.8% | viability, T/C (second compound 0.1 µM, first compound 0.01 µM): 35% | viability, T/C [1]: 25.8% | viability, T/C (second compound 0.316 µM, first compound 0.0001 µM): 63.1% | viability, T/C (second compound 0.316 µM, first compound 0.000316 µM): 53.3% | viability, T/C (second compound 0.316 µM, first compound 0.001 µM): 41.7% | viability, T/C (second compound 0.316 µM, first compound 0.00316 µM): 34.9% | viability, T/C (second compound 0.316 µM, first compound 0.01 µM): 27.1% | viability, T/C [7]: 20.4% | viability, T/C (second compound 1 µM, first compound 0.0001 µM): 47.3% | viability, T/C (second compound 1 µM, first compound 0.000316 µM): 40% | viability, T/C (second compound 1 µM, first compound 0.001 µM): 33.6% | viability, T/C (second compound 1 µM, first compound 0.00316 µM): 25.6% | viability, T/C (second compound 1 µM, first compound 0.01 µM): 20.4% | viability, T/C [13]: 17.1% | viability, T/C (second compound 3.16 µM, first compound 0.0001 µM): 29% | viability, T/C (second compound 3.16 µM, first compound 0.000316 µM): 27.8% | viability, T/C (second compound 3.16 µM, first compound 0.001 µM): 21.7% | viability, T/C (second compound 3.16 µM, first compound 0.00316 µM): 17.4% | viability, T/C (second compound 3.16 µM, first compound 0.01 µM): 18.8% | viability, T/C [19]: 17.8% | viability, T/C (second compound 10 µM, first compound 0.0001 µM): 29% | viability, T/C (second compound 10 µM, first compound 0.000316 µM): 26.3% | viability, T/C (second compound 10 µM, first compound 0.001 µM): 19.7% | viability, T/C (second compound 10 µM, first compound 0.00316 µM): 17.7% | viability, T/C (second compound 10 µM, first compound 0.01 µM): 14.8% | viability, T/C [25]: 15.9%

O=C(c1cc(Cc2n[nH]c(=O)c3ccccc23)ccc1F)N1CCN(C(=O)C2CC2)CC1 + COc1cc2nc(C)nc(NC(C)c3cc(N)cc(C(F)(F)F)c3)c2cc1OC1CCOC1
IC50 (second compound 0.1 µM): > 10000 nM | IC50 (second compound 0.316 µM): > 10000 nM | IC50 (second compound 1 µM): > 10000 nM | IC50 (second compound 3.16 µM): > 10000 nM | IC50 (second compound 10 µM): > 10000 nM | viability, T/C [1]: 101% | viability, T/C [2]: 107% | viability, T/C [3]: 94.1% | viability, T/C [4]: 98.8% | viability, T/C [5]: 88% | viability, T/C [6]: 59.1% | viability, T/C [7]: 90.3% | viability, T/C [8]: 81% | viability, T/C [9]: 83.5% | viability, T/C [10]: 84.9% | viability, T/C [11]: 78.9% | viability, T/C [12]: 57.7% | viability, T/C [13]: 102% | viability, T/C [14]: 103% | viability, T/C [15]: 95.5% | viability, T/C [16]: 99% | viability, T/C [17]: 94.6% | viability, T/C [18]: 50.2% | viability, T/C [19]: 81.5% | viability, T/C [20]: 82.2% | viability, T/C [21]: 76.1% | viability, T/C [22]: 83.2% | viability, T/C [23]: 76.9% | viability, T/C [24]: 52.5% | viability, T/C [25]: 76.7% | viability, T/C [26]: 76.3% | viability, T/C [27]: 78.8% | viability, T/C [28]: 75.8% | viability, T/C [29]: 75.9% | viability, T/C [30]: 51.2%
